# In PubChem BioAssay (NCI):
#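 1) Cells in 96-well plates. 2) Compound, 48 h, 5 concentrations. 3) Linear interpolation between surrounding doses. 4) Unreached endpoint = highest concentration. GI50 marks 50% less growth. TGI: total growth inhibition.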
# Experiments:
# Experiment in all cases: NCI anticancer screen, dose series, 48 h
# 786-0 renal = system: 786-0 renal
# A498 renal = system: A498 renal
# A549 NSCLC = system: A549 NSCLC
# ACHN renal = system: ACHN renal
# BT-549 breast = system: BT-549 breast
# CAKI-1 renal = system: CAKI-1 renal
# CCRF-CEM leukemia = system: CCRF-CEM leukemia
# COLO 205 colon = system: COLO 205 colon
# DU-145 prostate = system: DU-145 prostate
# EKVX NSCLC = system: EKVX NSCLC
# HCC-2998 colon = system: HCC-2998 colon
# HCT-116 colon = system: HCT-116 colon
# HCT-15 colon = system: HCT-15 colon
# HL-60(TB) leukemia = system: HL-60(TB) leukemia
# HOP-62 NSCLC = system: HOP-62 NSCLC
# HOP-92 NSCLC = system: HOP-92 NSCLC
# HS 578T breast = system: HS 578T breast
# HT29 colon = system: HT29 colon
# IGROV1 ovarian = system: IGROV1 ovarian
# K-562 leukemia = system: K-562 leukemia
# KM12 colon = system: KM12 colon
# LOX IMVI melanoma = system: LOX IMVI melanoma
# M14 melanoma = system: M14 melanoma
# MALME-3M melanoma = system: MALME-3M melanoma
# MCF7 breast = system: MCF7 breast
# MDA-MB-231 breast = system: MDA-MB-231 breast
# MDA-MB-435 = system: MDA-MB-435
# MOLT-4 leukemia = system: MOLT-4 leukemia
smiles,measurement,setting,value
COc1ccc(Cn2cc3c(c2-c2cc(OC)c(OC)c(OC)c2)CCc2cnoc2-3)cc1N,GI50,786-0 renal,59.9 nM
same,TGI,786-0 renal,> 23200 nM
same,GI50,A498 renal,23.9 nM
same,TGI,A498 renal,524 nM
same,GI50,A549 NSCLC,82.1 nM
same,TGI,A549 NSCLC,> 100000 nM
same,GI50,ACHN renal,73.1 nM
same,TGI,ACHN renal,> 100000 nM
same,GI50,BT-549 breast,173 nM
same,TGI,BT-549 breast,> 100000 nM
same,GI50,CAKI-1 renal,31.9 nM
same,TGI,CAKI-1 renal,> 100000 nM
same,GI50,CCRF-CEM leukemia,38.4 nM
same,GI50,COLO 205 colon,251 nM
same,TGI,COLO 205 colon,789 nM
same,GI50,DU-145 prostate,34.3 nM
same,TGI,DU-145 prostate,355 nM
same,GI50,EKVX NSCLC,235 nM
same,TGI,EKVX NSCLC,> 100000 nM
same,GI50,HCC-2998 colon,88.2 nM
same,TGI,HCC-2998 colon,> 42000 nM
same,GI50,HCT-116 colon,45 nM
same,TGI,HCT-116 colon,2840 nM
same,GI50,HCT-15 colon,45.4 nM
same,TGI,HCT-15 colon,> 100000 nM
same,GI50,HL-60(TB) leukemia,26.8 nM
same,TGI,HL-60(TB) leukemia,184 nM
same,GI50,HOP-62 NSCLC,52.1 nM
same,TGI,HOP-62 NSCLC,> 100000 nM
same,GI50,HOP-92 NSCLC,4580 nM
same,TGI,HOP-92 NSCLC,> 100000 nM
same,GI50,HS 578T breast,34.3 nM
same,TGI,HS 578T breast,> 100000 nM
same,GI50,HT29 colon,307 nM
same,TGI,HT29 colon,1710 nM
same,GI50,IGROV1 ovarian,81.8 nM
same,TGI,IGROV1 ovarian,> 72600 nM
same,GI50,K-562 leukemia,35.1 nM
same,TGI,K-562 leukemia,> 100000 nM
same,GI50,KM12 colon,40.1 nM
same,TGI,KM12 colon,1940 nM
same,GI50,LOX IMVI melanoma,64.1 nM
same,TGI,LOX IMVI melanoma,> 100000 nM
same,GI50,M14 melanoma,50.7 nM
same,TGI,M14 melanoma,> 100000 nM
same,GI50,MALME-3M melanoma,38.2 nM
same,TGI,MALME-3M melanoma,> 100000 nM
same,GI50,MCF7 breast,36 nM
same,TGI,MCF7 breast,> 40000 nM
same,GI50,MDA-MB-231 breast,158 nM
same,TGI,MDA-MB-231 breast,> 100000 nM
same,GI50,MDA-MB-435,14.1 nM
same,TGI,MDA-MB-435,38.4 nM
same,GI50,MOLT-4 leukemia,64.8 nM
same,TGI,MOLT-4 leukemia,> 45900 nM
